# Calls of active or inactive are those of the source. The calls are words filed in the database; no cut-off is given here.
# What was measured:
# SK-MEL-30 [1] = test: Inhibition of ERK1/2 phosphorylation in human SK-MEL-30 cells harboring […] mutant incubated for 4 hrs by AlphaLISA assay; type: cell-based
# [2] = Half-life in female BALB/c mouse at 10 mg/kg, po measured after 24 hrs by LC-MS/MS analysis; type: ADME, organism-based; conditions: in vivo
# [3] = (§1) In vivo inhibition of MAPK signaling pathway in female BALB/c nude mouse xenografted with human MIA PaCa-2 cells harboring KRAS G12C/G12C mutant assessed as reduction in DUSP6 mRNA level in tumor at 3 mg/kg, po administered as single dose and measured after 8 hrs by qPCR analysis relative to control; type: functional
# [4] = Half-life in male Beagle dog at 5 mg/kg, po measured after 24 hrs by LC-MS/MS analysis; type: ADME, organism-based, Canis lupus familiaris; conditions: in vivo
# [5] = Clearance in female BALB/c mouse blood at 1 mg/kg, iv measured after 24 hrs by LC-MS/MS analysis; type: ADME, organism-based
# [6] = Volume of distribution at steady state in male cynomolgus monkey at 1 mg/kg, iv measured after 24 hrs by LC-MS/MS analysis; type: ADME, organism-based, Macaca fascicularis; conditions: in vivo, read-out: Vdss
# [7] = Ratio of drug concentration in mouse blood to plasma at 10 uM measured upto 120 mins by LC-MS/MS analysis; type: ADME, cell-free
# [8] = Toxicity in female BALB/c nude mouse xenografted with human MIA PaCa-2 cells harboring KRAS G12C/G12C mutant assessed as effect on body weight at 25 mg/kg, po administered once daily for 28 days; type: organism-based; conditions: in vivo, 672 h, time 28 day
# [9] = Half-life in male cynomolgus monkey at 10 mg/kg, po measured after 24 hrs by LC-MS/MS analysis; type: ADME, organism-based, Macaca fascicularis; conditions: in vivo
# [10] = Inhibition of 6His-tagged wildtype KRAS (1 to 169 residues)/GST-tagged GMPPNP-bound BRAF RBD (155 to 229 reisudes)/Cyclophilin A (unknown origin) tri-complex protein-protein interaction incubated for 3 hrs by TR-FERT based disruption assay; design: species or system Homo sapiens
# SK-MEL-30 [11] = test: Cytotoxicity against human SK-MEL-30 cells harboring […] mutant cultured as 2D cells assessed as inhibition of cell proliferation incubated for 120 hrs by CellTiter-Glo luminescence assay; type: functional, cell-based
# NCI-H1975 = test: Cytotoxicity against human NCI-H1975 cells harboring wildtype KRAS cultured as 2D cells assessed as reduction in cell viability incubated for 120 hrs by CellTiter-Glo luminescence assay; type: functional, cell-based; conditions: NCI-H1975, 120 h
# [12] = as §1, with “25” for “3”; type: functional
# [13] = Oral bioavailability in male Sprague-Dawley rat at 60 mg/kg measured after 24 hrs by LC-MS/MS analysis; type: ADME, organism-based; conditions: in vivo
# Mus musculus = test: In vivo inhibition of MAPK signaling pathway in female BALB/c nude mouse xenografted with human MIA PaCa-2 cells harboring KRAS G12C/G12C mutant assessed as reduction in DUSP6 mRNA level in tumor at 25 mg/kg, po administered as single dose and measured upto 48 hrs by qPCR analysis; type: functional, organism-based
# [14] = Ratio of drug concentration in mouse blood to plasma at 0.1 uM measured upto 120 mins by LC-MS/MS analysis; type: ADME, cell-free
# [15] = Half-life in male cynomolgus monkey at 1 mg/kg, iv measured after 24 hrs by LC-MS/MS analysis; type: ADME, organism-based, Macaca fascicularis; conditions: in vivo
# A-375 = test: Cytotoxicity against human A-375 cells assessed as reduction in cell viability incubated for 120 hrs by CellTiter-Glo luminescence assay; type: functional, cell-based; conditions: A-375, 120 h
# MIA PaCa-2 = test: Antitumor activity against human MIA PaCa-2 cells harboring KRAS G12C/G12C mutant xenografted in female BALB/c mouse model assessed as tumor regression at 25 mg/kg, po administered once daily for 28 days; type: functional, organism-based; conditions: time 28.0 day
# [16] = Clearance in male Beagle dog at 1 mg/kg, iv measured after 24 hrs by LC-MS/MS analysis; type: ADME, organism-based, Canis lupus familiaris; conditions: in vivo
# [17] = Tmax in male cynomolgus monkey at 10 mg/kg, po measured after 24 hrs by LC-MS/MS analysis; type: ADME, organism-based, Macaca fascicularis; conditions: in vivo
# [18] = target: Sodium channel protein type 5 subunit alpha (Homo sapiens, UniProt Q14524); test: Inhibition of human Nav1.5; type: toxicity
# Chain of Sodium channel protein type 5 subunit alpha (Q14524 whole entry): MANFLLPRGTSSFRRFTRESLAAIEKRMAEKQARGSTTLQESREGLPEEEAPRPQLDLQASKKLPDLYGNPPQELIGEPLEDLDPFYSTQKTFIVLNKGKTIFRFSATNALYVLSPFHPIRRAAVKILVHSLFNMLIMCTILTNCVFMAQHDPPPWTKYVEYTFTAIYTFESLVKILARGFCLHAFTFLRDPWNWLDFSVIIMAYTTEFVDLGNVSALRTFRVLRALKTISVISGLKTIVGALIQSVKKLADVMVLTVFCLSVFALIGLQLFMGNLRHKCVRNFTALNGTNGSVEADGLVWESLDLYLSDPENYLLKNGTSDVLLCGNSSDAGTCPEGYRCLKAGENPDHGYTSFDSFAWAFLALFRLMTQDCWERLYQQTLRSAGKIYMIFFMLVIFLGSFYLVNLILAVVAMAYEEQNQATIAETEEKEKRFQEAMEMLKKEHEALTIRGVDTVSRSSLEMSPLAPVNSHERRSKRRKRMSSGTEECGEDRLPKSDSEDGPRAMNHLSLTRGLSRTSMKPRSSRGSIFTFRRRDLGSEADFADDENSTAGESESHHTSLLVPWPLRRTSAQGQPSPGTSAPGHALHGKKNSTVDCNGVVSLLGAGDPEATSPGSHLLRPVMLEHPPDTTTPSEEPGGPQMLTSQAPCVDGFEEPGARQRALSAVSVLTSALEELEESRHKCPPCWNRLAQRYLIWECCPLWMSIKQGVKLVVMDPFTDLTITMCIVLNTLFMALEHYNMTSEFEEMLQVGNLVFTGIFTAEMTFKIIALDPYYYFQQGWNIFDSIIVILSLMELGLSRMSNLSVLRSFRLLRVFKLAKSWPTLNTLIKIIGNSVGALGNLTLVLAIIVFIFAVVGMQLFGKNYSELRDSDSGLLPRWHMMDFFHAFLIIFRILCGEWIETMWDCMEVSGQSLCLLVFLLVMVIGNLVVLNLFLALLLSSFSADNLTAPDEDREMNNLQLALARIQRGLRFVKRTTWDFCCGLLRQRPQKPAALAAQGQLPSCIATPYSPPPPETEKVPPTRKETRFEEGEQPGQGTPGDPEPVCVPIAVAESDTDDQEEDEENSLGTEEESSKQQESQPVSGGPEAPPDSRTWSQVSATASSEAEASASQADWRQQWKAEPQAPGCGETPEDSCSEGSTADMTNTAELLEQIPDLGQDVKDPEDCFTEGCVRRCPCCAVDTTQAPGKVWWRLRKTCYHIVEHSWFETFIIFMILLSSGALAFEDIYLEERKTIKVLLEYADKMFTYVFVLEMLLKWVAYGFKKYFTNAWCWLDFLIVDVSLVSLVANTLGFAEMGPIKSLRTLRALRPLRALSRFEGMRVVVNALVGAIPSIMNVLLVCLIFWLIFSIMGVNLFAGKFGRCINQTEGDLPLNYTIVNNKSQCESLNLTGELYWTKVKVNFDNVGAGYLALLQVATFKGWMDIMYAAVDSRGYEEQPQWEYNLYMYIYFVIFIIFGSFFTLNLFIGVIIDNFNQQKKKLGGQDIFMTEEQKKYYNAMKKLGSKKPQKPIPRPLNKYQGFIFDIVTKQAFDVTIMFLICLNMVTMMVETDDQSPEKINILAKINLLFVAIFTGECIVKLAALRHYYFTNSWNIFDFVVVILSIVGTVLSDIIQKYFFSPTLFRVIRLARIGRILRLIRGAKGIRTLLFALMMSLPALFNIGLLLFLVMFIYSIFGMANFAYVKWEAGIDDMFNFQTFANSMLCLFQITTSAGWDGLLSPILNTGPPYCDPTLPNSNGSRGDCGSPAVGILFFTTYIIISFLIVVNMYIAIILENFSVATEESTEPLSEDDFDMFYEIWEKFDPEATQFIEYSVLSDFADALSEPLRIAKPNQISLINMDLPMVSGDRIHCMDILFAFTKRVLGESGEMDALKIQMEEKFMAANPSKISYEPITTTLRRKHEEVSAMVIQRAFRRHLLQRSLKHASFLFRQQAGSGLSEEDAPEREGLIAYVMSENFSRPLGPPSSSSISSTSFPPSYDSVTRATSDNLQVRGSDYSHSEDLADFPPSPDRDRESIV
# [19] = Tmax in female BALB/c mouse at 10 mg/kg, po measured after 24 hrs by LC-MS/MS analysis; type: ADME, organism-based; conditions: in vivo
# HPAF-II = test: Antitumor activity against human HPAF-II cells harboring wildtype KRAS/KRAS G12D mutant xenografted in female BALB/c mouse model assessed as reduction in tumor volume administered orally as once daily dose for 28 days; type: functional, cell-based; conditions: dose 3-25 mg/kg, route po, time 28.0 day
# HCT-116 = test: Cytotoxicity against human HCT-116 cells harboring KRAS G13D mutant cultured as 2D cells assessed as inhibition of cell proliferation incubated for 120 hrs by CellTiter-Glo luminescence assay; type: functional, cell-based
# [20] = Lipophilicity, logD of compound at pH 7.4 by Agilent 1290 II uPLC analysis; type: physicochemical; conditions: buffer
# [21] = target: Voltage-gated inwardly rectifying potassium channel KCNH2 (Homo sapiens, UniProt Q12809); test: Inhibition of human ERG; type: toxicity
# Chain of Voltage-gated inwardly rectifying potassium channel KCNH2 (Q12809 whole entry): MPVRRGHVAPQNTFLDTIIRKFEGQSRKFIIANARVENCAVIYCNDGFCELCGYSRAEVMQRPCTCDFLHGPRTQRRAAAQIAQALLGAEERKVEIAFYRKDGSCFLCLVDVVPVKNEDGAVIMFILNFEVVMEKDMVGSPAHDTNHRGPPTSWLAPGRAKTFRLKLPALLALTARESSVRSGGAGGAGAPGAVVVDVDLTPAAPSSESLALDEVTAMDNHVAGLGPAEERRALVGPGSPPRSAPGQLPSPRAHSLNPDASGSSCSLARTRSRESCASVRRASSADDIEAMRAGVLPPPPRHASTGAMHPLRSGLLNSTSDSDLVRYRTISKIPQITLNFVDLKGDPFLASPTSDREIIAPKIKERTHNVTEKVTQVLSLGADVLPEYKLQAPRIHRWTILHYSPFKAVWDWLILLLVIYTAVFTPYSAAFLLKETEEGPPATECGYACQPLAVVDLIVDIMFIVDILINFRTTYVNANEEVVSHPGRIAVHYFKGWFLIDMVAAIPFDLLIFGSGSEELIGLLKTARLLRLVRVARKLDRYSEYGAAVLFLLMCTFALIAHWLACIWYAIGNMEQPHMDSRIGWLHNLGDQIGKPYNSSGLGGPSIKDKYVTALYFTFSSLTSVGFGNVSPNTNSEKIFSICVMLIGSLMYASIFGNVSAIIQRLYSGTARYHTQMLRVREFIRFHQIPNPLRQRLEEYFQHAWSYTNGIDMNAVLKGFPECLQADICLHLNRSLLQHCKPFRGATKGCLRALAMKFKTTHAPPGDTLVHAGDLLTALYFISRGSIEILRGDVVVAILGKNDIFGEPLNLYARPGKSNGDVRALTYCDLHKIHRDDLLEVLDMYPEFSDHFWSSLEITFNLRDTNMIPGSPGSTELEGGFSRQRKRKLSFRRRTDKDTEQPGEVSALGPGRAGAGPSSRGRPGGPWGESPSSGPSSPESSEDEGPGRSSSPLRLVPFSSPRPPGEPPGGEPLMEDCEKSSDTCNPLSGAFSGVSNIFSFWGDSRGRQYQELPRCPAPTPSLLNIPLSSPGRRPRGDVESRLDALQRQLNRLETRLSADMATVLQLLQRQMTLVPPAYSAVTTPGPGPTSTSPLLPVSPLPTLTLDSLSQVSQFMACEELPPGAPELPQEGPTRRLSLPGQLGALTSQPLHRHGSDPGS
# [22] = Clearance in male cynomolgus monkey at 1 mg/kg, iv measured after 24 hrs by LC-MS/MS analysis; type: ADME, organism-based, Macaca fascicularis; conditions: in vivo
# NCI-H358 = test: Cytotoxicity against human NCI-H358 cells harboring KRAS G12C mutant cultured as 2D cells assessed as reduction in cell viability incubated for 120 hrs by CellTiter-Glo luminescence assay; type: functional, cell-based; conditions: NCI-H358, 120 h
# [23] = Volume of distribution at steady state in male Beagle dog at 1 mg/kg, iv measured after 24 hrs by LC-MS/MS analysis; type: ADME, organism-based, Canis lupus familiaris; conditions: in vivo, read-out: Vdss
# PSN1 = test: Inhibition of ERK1/2 phosphorylation in human PSN1 cells harboring KRAS G12R mutant incubated for 4 hrs by AlphaLISA assay; type: cell-based
# [24] = Toxicity in female BALB/c nude mouse xenografted with human NCI-H1373 cells harboring KRAS G12C/KRAS G12C mutant assessed as effect on body weight at 25 mg/kg, po administered once daily for 28 days; type: organism-based; conditions: in vivo, 672 h, time 28 day
# [25] = Inhibition of ERK1/2 phosphorylation in human CAPAN-1 cells harboring KRAS G12V mutant incubated for 4 hrs by AlphaLISA assay; type: cell-based; conditions: CAPAN-1, 4 h
# [26] = Oral bioavailability in male Beagle dog at 5 mg/kg measured after 24 hrs by LC-MS/MS analysis; type: ADME, organism-based, Canis lupus familiaris; conditions: in vivo
# [27] = Oral bioavailability in female BALB/c mouse blood at 10 mg/kg measured after 24 hrs by LC-MS/MS analysis; type: ADME, organism-based
# [28] = Tmax in male Sprague-Dawley rat at 60 mg/kg, po measured after 24 hrs by LC-MS/MS analysis; type: ADME, organism-based; conditions: in vivo
# [29] = Half-life in male Beagle dog at 1 mg/kg, iv measured after 24 hrs by LC-MS/MS analysis; type: ADME, organism-based, Canis lupus familiaris; conditions: in vivo
smiles,measurement,setting,value
CCn1c(-c2cc(N3CCN(C)CC3)cnc2[C@H](C)OC)c2c3cc(ccc31)-c1csc(n1)C[C@H](NC(=O)[C@H]1C[C@@H]1C)C(=O)N1CCC[C@H](N1)C(=O)OCC(C)(C)C2,inhibition,SK-MEL-30 [1],Active
same,half-life,[2],2.4 h
same,inhibition in vivo at 3 mg/kg,[3],93%
same,half-life,[4],5.3 h
same,clearance,[5],8.33 mL/min/kg
same,Vd,[6],2.9 L/kg
same,"blood plasma ratio at 2 h, 10 µM",[7],1.1
same,Activity,[8],Non-toxic
same,half-life,[9],4.6 h
same,IC50,[10],92 nM
same,Activity,SK-MEL-30 [11],Active
same,EC50,NCI-H1975,1.4 nM
same,inhibition in vivo at 25 mg/kg,[12],98%
same,bioavailability,[13],27%
same,inhibition,Mus musculus,Active
same,"blood plasma ratio at 2 h, 0.1 µM",[14],4.2
same,half-life,[15],6.2 h
same,EC50,A-375,7210 nM
same,Activity,MIA PaCa-2,Active
same,clearance,[16],6.67 mL/min/kg
same,Tmax,[17],3.7 h
same,IC50,[18],> 30000 nM
same,Tmax,[19],1.7 h
same,Activity,HPAF-II,Dose-dependent-effect
same,Activity,HCT-116,Active
same,logD,[20],4.5
same,IC50,[21],8900 nM
same,clearance,[22],8.33 mL/min/kg
same,EC50,NCI-H358,1 nM
same,Vd,[23],2.1 L/kg
same,inhibition,PSN1,Active
same,Activity,[24],Non-toxic
same,EC50,[25],0.3 nM
same,bioavailability,[26],33%
same,bioavailability,[27],33%
same,Tmax,[28],4 h
same,half-life,[29],6.1 h
